Like-named read-outs stand apart in the source and are kept apart here.
Legend:
H1 receptor = target: T1, H1 receptor (Mus musculus, UniProt P70174); assay: Murine intracranial H1 receptor content (ex vivo), 3H-pyrilamine binding in brain homogenate after oral dosing; conditions: for ID50 (mg/kg)/ED50 (mg/kg): ID50 of intracranial receptor binding test (Table 7) divided by ED50 of histamine-induced vascular hyperpermeability test (Table 6); for ED50: mouse
T1 construct: The excised brain tissue was homogenized with Polytron; from tissue; host or cells: entire brain except cerebellum and medulla oblongata, homogenate

[1] = system: histamine-induced vascular hyperpermeability; assay: Rat histamine-induced vascular hyperpermeability reaction (in vivo antihistamine action); conditions: SD male rat, oral administration 1 hour before intracutaneous histamine (20 μg/location), Evans Blue leakage after 30 minutes
Experimental: Rat Histamine-Induced Vascular Hyperpermeability Reaction (in Vivo Antihistamine Action)
An SD male rat (SPF) of 180 g in weight was previously fed for one week or more by allowing the rat to take a solid feed and tap water ad libitum, under the environment setting of a temperature of 22° C., humidity of 55% and an artificial illumination of 12 hours a day (light phase 8 am to 8 pm), and the rat was fasted overnight to be used for the experiment. Histamine-dihydrochloride (hereinafter referred to as histamine) and Evans Blue were used by dissolving each in physiological saline upon use. A substance to be tested was dissolved in water for injection or suspended in 0.5% carboxymethyl cellulose sodium, and the rat was orally administered with the solution or suspension (dose volume: 5 mL/kg body weight). After 1 hour from the administration, the physiological saline and the histamine solution were each intracutaneously injected to two locations (20 μg/0.05 ml/location) each on a back part of the rat of which hair was sheared with an electric clipper while anesthetizing with an ether. A 0.5% Evans Blue-containing physiological saline was injected intravenously to the tail (1 mL/200 g body weight) of the rat immediately before the intracutaneous injection of the histamine.
After 30 minutes, the animal was decapitated, and allowed to bleed lethally, and the skin was removed to measure an amount of leaked pigment in the blue-stained portion. The measurement of the amount of leaked pigment was carried out as follows. Skins of the pigment leaking site were cut out at two locations, 1 mL of a 2 mol/L aqueous potassium hydroxide solution was added thereto in a test tube, and the test tube was allowed to stand overnight at 37° C. to dissolve. Thereafter, 6 mL of a 1:3 mixed solution of 0.67 mol/L phosphoric acid and acetone was added to the solution, and the mixture was vigorously shaken for 10 minutes. Thereafter, the mixture was filtered, and the absorbance of the filtrate at 620 nm was measured. The absorbance obtained from the two locations of the sites injected with physiological saline, obtained as blank value, was used for a compensation. The amount of leaked pigment was calculated from the calibration curve of Evans Blue at 620 nm.

[2] = oral administration, brain excised after 1 hour, 3H-pyrilamine 2 nmol/L binding to brain homogenate, read-out: ID50 (the source's name)

T1 sequence (P70174 whole entry): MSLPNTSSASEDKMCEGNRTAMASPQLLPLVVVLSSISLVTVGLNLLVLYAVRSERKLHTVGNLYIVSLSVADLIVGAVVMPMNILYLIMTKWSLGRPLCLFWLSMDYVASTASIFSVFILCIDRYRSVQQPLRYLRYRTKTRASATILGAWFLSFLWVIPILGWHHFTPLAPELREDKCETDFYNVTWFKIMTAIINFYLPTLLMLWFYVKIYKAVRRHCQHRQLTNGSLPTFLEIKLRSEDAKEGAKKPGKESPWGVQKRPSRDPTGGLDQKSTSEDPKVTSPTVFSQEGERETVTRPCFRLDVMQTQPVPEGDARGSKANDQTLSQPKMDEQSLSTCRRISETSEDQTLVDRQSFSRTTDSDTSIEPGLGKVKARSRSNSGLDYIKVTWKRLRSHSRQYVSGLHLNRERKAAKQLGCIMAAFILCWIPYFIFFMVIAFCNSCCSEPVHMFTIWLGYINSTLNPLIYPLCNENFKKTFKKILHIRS

melting point	SMILES	other results
131 to 132 °C	CN1CCC(=C2c3ccccc3COc3ccc(Br)cc32)CC1 [Compound 4, 4-(2-Bromo-6H-dibenz[b,e]oxepin-11-ylidene)-1-methylpiperidine]	
173 to 175 °C	CCOC(=O)C=Cc1ccc2c(c1)OCc1ccccc1C2=C1CCN(C)CC1 [Compound 35, Ethyl 3-[11-(1-methylpiperidin-4-ylidene)-6,11-dihydrodibenz[b,e]oxepin-3-yl]acrylate]	
127 to 128 °C	CN1CCC(=C2c3ccccc3COc3cc(Br)ccc32)CC1 [Compound 12, 4-(3-Bromo-6H-dibenz[b,e]oxepin-11-ylidene)-1-methylpiperidine]	
140 °C (dec.)	CN1CCC(=C2c3ccccc3COc3ccc(CN)cc32)CC1.Cl.Cl	
225 °C (dec.)	CN1CCC(=C2c3ccccc3COc3ccc(-c4nn[nH]n4)cc32)CC1 [Compound 8, 1-Methyl-4-[2-(2H-tetrazol-5-yl)-6H-dibenz[b,e]oxepin-11-ylidene]piperidine]	
270 °C (dec.)	CCOC(=O)c1ccc2c(c1)C(=C1CCN(C)CC1)c1ccccc1CO2.Cl	
226 °C (dec.)	CN1CCC(=C2c3ccccc3COc3ccc(CC(=O)O)cc32)CC1 [Compound 24, [11-(1-Methylpiperidin-4-ylidene)-6,11-dihydrodibenz[b,e]oxepin-2-yl]acetic acid]	ID50 (mg/kg)/ED50 (mg/kg) (H1 receptor): 53.3; ED50 (H1 receptor; [2]): 1.6 mg/kg; ED50 [1]: 0.03 mg/kg
175 to 178 °C	CN1CCC(=C2c3ccccc3COc3c(C#N)cccc32)CC1 [Compound 34, 11-(1-Methylpiperidin-4-ylidene)-6,11-dihydrodibenz[b,e]oxepin-4-carbonitrile]	
234 to 236 °C	CN1CCC(=C2c3ccccc3COc3ccc(C(=O)NCCO)cc32)CC1 [Compound 19, N-(2-Hydroxyethyl)-11-(1-methylpiperidin-4-ylidene)-6,11-dihydrodibenz[b,e]oxepin-2-carboxamide]	
175 to 176 °C	CN1CCC(=C2c3ccccc3COc3cc(C#N)ccc32)CC1 [Compound 13, 11-(1-Methylpiperidin-4-ylidene)-6,11-dihydrodibenz[b,e]oxepin-3-carbonitrile]	
126 to 127 °C	CCOC(=O)C=Cc1cccc2c1OCc1ccccc1C2=C1CCN(C)CC1 [Compound 31, Ethyl 3-[11-(1-methylpiperidin-4-ylidene)-6,11-dihydrodibenz[b,e]oxepin-4-yl]acrylate]	
157 to 160 °C	CN1CCC(=C2c3ccccc3COc3ccc(C=O)cc32)CC1 [Compound 23, 11-(1-Methylpiperidin-4-ylidene)-6,11-dihydrodibenz[b,e]oxepin-2-carboaldehyde]	
145 °C (dec.)	CN1CCC(=C2c3ccccc3COc3ccc(C=CC(=O)O)cc32)CC1 [Compound 7, 3-[11-(1-Methylpiperidin-4-ylidene)-6,11-dihydrodibenz[b,e]oxepin-2-yl]acrylic acid]	ID50 (mg/kg)/ED50 (mg/kg) (H1 receptor): 4.4; ED50 (H1 receptor; [2]): 1.32 mg/kg; ED50 [1]: 0.3 mg/kg
118 °C (dec.)	CN1CCC(=C2c3ccccc3COc3ccc(C=CCO)cc32)CC1.Cl	
251 °C (dec.)	CN1CCC(=C2c3cc(C(=O)O)ccc3COc3ccccc32)CC1 [Compound 28, 11-(1-Methylpiperidin-4-ylidene)-6,11-dihydrodibenz[b,e]oxepin-9-carboxylic acid]	
183 °C (dec.)	CN1CCC(=C2c3ccccc3COc3ccc(NC(N)=O)cc32)CC1 [Compound 17, [11-(1-Methylpiperidin-4-ylidene)-6,11-dihydrodibenz[b,e]oxepin-2-yl]urea]	ID50 (mg/kg)/ED50 (mg/kg) (H1 receptor): 60.6; ED50 (H1 receptor; [2]): 37.6 mg/kg; ED50 [1]: 0.62 mg/kg

The next lines start with the molecule.

SMILES	melting point	other results
CN1CCC(=C2c3ccc(C(=O)O)cc3COc3ccccc32)CC1 [Compound 33, 11-(1-Methylpiperidin-4-ylidene)-6,11-dihydrodibenz[b,e]oxepin-8-carboxylic acid]	210 °C (dec.)	
CCOC(=O)CCC(=O)NCc1ccc2c(c1)C(=C1CCN(C)CC1)c1ccccc1CO2 [Compound 27, Ethyl N-[11-(1-methylpiperidin-4-ylidene)-6,11-dihydrodibenz[b,e]oxepin-2-ylmethyl]succinamate]	150 to 152 °C	
CN1CCC(=C2c3ccccc3COc3ccc(CNC(=O)CCC(=O)O)cc32)CC1 [Compound 26, N-[11-(1-Methylpiperidin-4-ylidene)-6,11-dihydrodibenz[b,e]oxepin-2-ylmethyl]succinamic acid]	144 °C (dec.)	
CCOC(=O)NCc1ccc2c(c1)C(=C1CCN(C)CC1)c1ccccc1CO2 [Compound 14, Ethyl [11-(1-methylpiperidin-4-ylidene)-6,11-dihydrodibenz[b,e]oxepin-2-ylmethyl]carbamate]	135 to 136 °C	
CN1CCC(=C2c3ccccc3COc3ccc(CO)cc32)CC1 [Compound 21, [11-(1-Methylpiperidin-4-ylidene)-6,11-dihydrodibenz[b,e]oxepin-2-yl]methanol]	140 to 143 °C	
CCOC(=O)c1ccc2c(c1)C(=C1CCN(C)CC1)c1ccccc1OC2 [Compound 29, Ethyl 11-(1-methylpiperidin-4-ylidene)-6,11-dihydrodibenz[b,e]oxepin-9-carboxylate]	124 °C (dec.)	
CN1CCC(=C2c3ccccc3COc3ccc(CNC(=O)c4ccccc4)cc32)CC1 [Compound 20, N-[11-(1-Methylpiperidin-4-ylidene)-6,11-dihydrodibenz[b,e]oxepin-2-ylmethyl]benzamide]	218 to 219 °C	
CN1CCC(=C2c3ccccc3COc3ccc(CNC(=O)OC(C)(C)C)cc32)CC1 [Compound 9, tert-Butyl [11-(1-methylpiperidin-4-ylidene)-6,11-dihydrodibenz[b,e]oxepin-2-ylmethyl]carbamate]	145 to 148 °C	
CN1CCC(=C2c3ccccc3CC(=O)c3sccc32)CC1 [Ketotifen, reference compound]		ED50 [1]: 0.54 mg/kg
CN1CCC(=C2c3ccccc3COc3c(C(=O)O)cccc32)CC1 [Compound 37, 11-(1-Methylpiperidin-4-ylidene)-6,11-dihydrodibenz[b,e]oxepin-4-carboxylic acid]	233 °C (dec.)	
CN1CCC(=C2c3ccccc3COc3ccc(C(=O)O)cc32)CC1 [Compound 1, 11-(1-Methylpiperidin-4-ylidene)-6,11-dihydrodibenz[b,e]oxepin-2-carboxylic acid]		ID50 (mg/kg)/ED50 (mg/kg) (H1 receptor): 27.2; ED50 (H1 receptor; [2]): 1.25 mg/kg; ED50 [1]: 0.046 mg/kg
CCOC(=O)c1cccc2c1OCc1ccccc1C2=C1CCN(C)CC1 [Compound 36, Ethyl 11-(1-methylpiperidin-4-ylidene)-6,11-dihydrodibenz[b,e]oxepin-4-carboxylate]	124 °C (dec.)	
CN1CCC(=C2c3ccccc3COc3cc(C(=O)O)ccc32)CC1 [Compound 18, 11-(1-Methylpiperidin-4-ylidene)-6,11-dihydrodibenz[b,e]oxepin-3-carboxylic acid]	208 to 212 °C	
CCOC(=O)CNC(=O)c1ccc2c(c1)C(=C1CCN(C)CC1)c1ccccc1CO2 [Compound 3, Ethyl {[11-(1-methylpiperidin-4-ylidene)-6,11-dihydrodibenz[b,e]oxepin-2-carbonyl]amino}acetate]	175 to 178 °C	
CN1CCC(=C2c3ccccc3COc3c(C=CC(=O)O)cccc32)CC1 [Compound 32, 3-[11-(1-Methylpiperidin-4-ylidene)-6,11-dihydrodibenz[b,e]oxepin-4-yl]acrylic acid]	188 °C (dec.)	
CN1CCC(=C2c3ccccc3COc3ccc(CCC(=O)O)cc32)CC1.Cl [Compound 43, 3-[11-(1-Methylpiperidin-4-ylidene)-6,11-dihydrodibenz[b,e]oxepin-2-yl]propionate hydrochloride]		ID50 (mg/kg)/ED50 (mg/kg) (H1 receptor): >20.0; ED50 (H1 receptor; po, 1 h, read-out: ID50): < 2 mg/kg; ED50 [1]: 0.1 mg/kg
COC(=O)C=Cc1ccc2c(c1)C(=C1CCN(C)CC1)c1ccccc1CO2.Cl	244 °C (dec.)	
Cc1ccc2c(c1)C(=C1CCN(C)CC1)c1ccccc1CO2 [Compound 16, 1-Methyl-4-(2-methyl-6H-dibenz[b,e]oxepin-11-ylidene)-piperidine]	133 to 134 °C	
CC(=O)NCc1ccc2c(c1)C(=C1CCN(C)CC1)c1ccccc1CO2 [Compound 15, N-[11-(1-Methylpiperidin-4-ylidene)-6,11-dihydrodibenz[b,e]oxepin-2-ylmethyl]acetamide]	195 to 196 °C	

Source: US8222419B2, “Oxepin derivative” (Nippon Zoki Pharmaceutical Co., Ltd., priority 2006, dated 2012)
